“Also recorded” adds a separate entry of the source.
What was measured:
[1] = system: advanced solid tumors or B cell lymphoma; experiment: Phase 1 tumor assessments (anti-tumor activity); assay type: in vivo, human
Protocol: (§1) PK/PD relationship was analyzed. Tumor assessments were performed every 8 weeks.

clinical = settings: human, in vivo; for AUC(0-t): AUC0-12 hr
Protocol: Blood samples for PK and skin biopsies for PD analysis were collected. PD samples were stained with H3K27me3 specific antibody and percent change from baseline in H3K27Me3 positive cells was determined. PK/PD relationship was analyzed. Tumor assessments were performed every 8 weeks.
Doses administered were 100 mg BID as a suspension (n=3) or tablet (n=3) formulation and 200, 400, 800 and 1600 mg as tablet formulation.

[2] = assay type: in vivo; settings: dose escalation up to 1600 mg BID
Protocol: Phase 1 dose escalation is being performed to determine maximum tolerated dose (MTD) safety, PK, PD, and preliminary anti-tumor activity in patients (“pts”) with B cell lymphoma or advanced solid tumors.
as §1

[3] = system: H3K27Me3 positive cells in the epidermis; experiment: Skin biopsy H3K27Me3 immunohistochemistry and PK/PD model; assay type: in vivo, human
Protocol: as §1
Skin biopsies were collected predose (Cycle 1, Day 1) and predose prior to Cycle 2, Day 1 for immunohistochemistry analysis.
An inhibitory Emax PK/PD model was fit to describe this relationship.

ABC lymphoma cell lines = experiment: Combination with drugs that target the BCR/PI3K pathways in ABC lymphoma cell lines; assay type: cell-based

Which Maximum tumor change ([1]; 100 mg dose group) does the source give for `CCN(c1cc(-c2ccc(CN3CCOCC3)cc2)cc(C(=O)NCc2c(C)cc(C)[nH]c2=O)c1C)C1CCOCC1` [EPZ-6438] here?
Its Maximum tumor change is −78%.

What about the Maximum tumor change ([1]; 200mg dose group) of the same molecule?
The Maximum tumor change was −87%.

What about the “Partial responses in evaluable NHL pts” value ([1]; 1 transformed DLBCL, 100mg BID, and 1 PMBL, 200mg BID) of the same molecule?
Its value is 2 of 4.

And the AUC0-12 hr (clinical; 100 mg)?
Its AUC0-12 hr is 337 ng·h/mL.

What about the Tmax (clinical; 100 mg) of the same molecule?
The Tmax was 1.0 h.

And the AUC(0-t) (clinical; 100 mg)?
The AUC(0-t) was 467 ng·h/mL.

And the Tmax (clinical; 100 mg, Tmax)?
Its Tmax is 0.5 h.

And the AUC(0-t) (clinical; 200 mg)?
Its AUC(0-t) is 1250 ng·h/mL.

What about the Cmax (clinical; 200 mg, Cmax) of the same molecule?
The Cmax was 363 ng/mL.

What about the Tmax (clinical; 200 mg, Tmax) of the same molecule?
Its Tmax is 1 h.

And the half-life (clinical; 200 mg, t1/2)?
Its half-life is 3.42 h.

And the AUC(0-t) (clinical; 400 mg)?
The AUC(0-t) was 1720 ng·h/mL.

What about the Cmax (clinical; 400 mg, Cmax) of the same molecule?
Its Cmax is 476 ng/mL.

And the Tmax (clinical; 400 mg, Tmax)?
Its Tmax is 2 h.

What about the half-life (clinical; 400 mg, t1/2) of the same molecule?
Its half-life is 2.88 h.

What about the AUC (clinical; 800 mg) of the same molecule?
The AUC was 4550 ng·h/mL.

And the AUC(0-t) (clinical; 800 mg)?
The AUC(0-t) was 7800 ng·h/mL.

What about the Cmax (clinical; 800 mg, Cmax) of the same molecule?
The Cmax was 1730 ng/mL.

And the Tmax (clinical; 800 mg, Tmax)?
The Tmax was 2 h.

And the half-life (clinical; 800 mg, t1/2)?
The half-life was 3.81 h.

And the Cmax (clinical; 1600 mg)?
Its Cmax is 4125 ng/mL.

And the AUC(0-t) (clinical; 1600 mg)?
Its AUC(0-t) is 18900 ng·h/mL.

And the Tmax (clinical; 1600 mg, Tmax)?
The Tmax was 2 h.

What about the half-life (clinical; 1600 mg, t1/2) of the same molecule?
Its half-life is 3.67 h.

And the half-life (clinical; mean EPZ-6438 terminal half-life (t½))?
Its half-life is 3 to 6 h.

And the Tmax (clinical; po, Tmax)?
The Tmax was 1 to 2 h.

And the half-life (clinical; po, half-life)?
The half-life was ~4 h.

And the half-life (clinical; terminal half-life (t½))?
Its half-life is 3 to 6 h.

And the MTD [2]?
Its MTD is “has not been reached”.

What about the “maximal inhibition (Imax) of H3K27Me3 positive cells in skin” value ([3]; inhibitory Emax PK/PD model estimate) of the same molecule?
The value was −44.4%.

And the “exposure associated with 50% of maximal inhibition (IC50)” value ([3]; inhibitory Emax PK/PD model estimate, AUC exposure)?
Its value is 487 ng·h/mL.

What about the “exposure associated with 90% of maximal inhibition (IC90)” value ([3]; model predicted, AUC exposure) of the same molecule?
Its value is 4421 ng·h/mL.

And the “H3K27Me3 positive cells in skin” value ([3]; skin biopsies, Cycle 2 Day 1 vs predose baseline)?
The value was “exposure-related decrease; also recorded: consistent decrease”.

And the “effect of combination with drugs that target the BCR/PI3K pathways” value (ABC lymphoma cell lines)?
The value was “no effect observed”.

From patent publication US20210060030A1, “METHOD FOR TREATING CANCER” (Epizyme, Inc., priority 2014, published 2021)
